Results as given in the NIST ThermoML archive (doi:10.1021/acs.jced.7b01125).
± gives the expanded uncertainty stated by the source.

Assay: xn = mol fraction of the nth substance listed
Conditions: Gas, Buoyancy - hydrostatic balance with magnetic suspension - one sinker

[HH] [hydrogen] + C
Conditions | mass density [kg/m3]
240.07 K, 999 kPa, x2 = 0.9 | 7.556 ± 0.047
240.07 K, 1000 kPa, x2 = 0.4997 | 4.558 ± 0.034
240.07 K, 1999 kPa, x2 = 0.9 | 15.591 ± 0.049
240.07 K, 2000 kPa, x2 = 0.4997 | 9.174 ± 0.034
240.07 K, 3001 kPa, x2 = 0.9 | 24.162 ± 0.052
240.07 K, 3002 kPa, x2 = 0.4997 | 13.857 ± 0.037
240.07 K, 4001 kPa, x2 = 0.9 | 33.3 ± 0.055
240.07 K, 4003 kPa, x2 = 0.4997 | 18.584 ± 0.039
240.07 K, 5000 kPa, x2 = 0.4997 | 23.326 ± 0.043
240.07 K, 5001 kPa, x2 = 0.9 | 43.067 ± 0.058
240.07 K, 6003 kPa, x2 = 0.4997 | 28.124 ± 0.048
240.07 K, 6003 kPa, x2 = 0.9 | 53.504 ± 0.062
240.07 K, 7000 kPa, x2 = 0.4997 | 32.918 ± 0.054
240.07 K, 7005 kPa, x2 = 0.9 | 64.62 ± 0.067
240.07 K, 8003 kPa, x2 = 0.4997 | 37.747 ± 0.061
240.07 K, 9002 kPa, x2 = 0.4997 | 42.553 ± 0.069
240.07 K, 10006 kPa, x2 = 0.4997 | 47.368 ± 0.077
240.07 K, 11006 kPa, x2 = 0.4997 | 52.137 ± 0.086
240.07 K, 11011 kPa, x2 = 0.9499 | 128.048 ± 0.085
240.07 K, 12005 kPa, x2 = 0.4997 | 56.857 ± 0.095
240.07 K, 12014 kPa, x2 = 0.9499 | 142.433 ± 0.083
240.07 K, 13003 kPa, x2 = 0.4997 | 61.522 ± 0.1
240.07 K, 13016 kPa, x2 = 0.9499 | 155.953 ± 0.081
240.07 K, 14011 kPa, x2 = 0.4997 | 66.173 ± 0.11
240.07 K, 14016 kPa, x2 = 0.9499 | 168.365 ± 0.078
240.07 K, 15002 kPa, x2 = 0.4997 | 70.674 ± 0.12
240.07 K, 15021 kPa, x2 = 0.9499 | 179.661 ± 0.075
240.07 K, 16013 kPa, x2 = 0.4997 | 75.179 ± 0.12
240.07 K, 16020 kPa, x2 = 0.9499 | 189.762 ± 0.072
240.07 K, 17008 kPa, x2 = 0.4997 | 79.535 ± 0.13
240.07 K, 17018 kPa, x2 = 0.9 | 179.188 ± 0.077
240.07 K, 17021 kPa, x2 = 0.9499 | 198.87 ± 0.07
240.07 K, 18016 kPa, x2 = 0.4997 | 83.857 ± 0.14
240.07 K, 18016 kPa, x2 = 0.9499 | 207.026 ± 0.069
240.07 K, 18030 kPa, x2 = 0.9 | 187.542 ± 0.075
240.07 K, 19008 kPa, x2 = 0.4997 | 88.009 ± 0.14
240.07 K, 19013 kPa, x2 = 0.9499 | 214.425 ± 0.068
240.07 K, 19032 kPa, x2 = 0.9 | 195.115 ± 0.074
240.07 K, 19589 kPa, x2 = 0.9 | 199.054 ± 0.074
240.07 K, 19703 kPa, x2 = 0.4997 | 90.858 ± 0.14
240.07 K, 19891 kPa, x2 = 0.9499 | 220.394 ± 0.067
240.08 K, 999 kPa, x2 = 0.9499 | 7.937 ± 0.049
240.08 K, 1998 kPa, x2 = 0.9499 | 16.447 ± 0.051
240.08 K, 3000 kPa, x2 = 0.9499 | 25.62 ± 0.055
240.08 K, 3999 kPa, x2 = 0.9499 | 35.505 ± 0.059
240.08 K, 5004 kPa, x2 = 0.9499 | 46.287 ± 0.063
240.08 K, 6000 kPa, x2 = 0.9499 | 57.87 ± 0.068
240.08 K, 7002 kPa, x2 = 0.9499 | 70.478 ± 0.073
240.08 K, 8004 kPa, x2 = 0.9499 | 84.026 ± 0.078
240.08 K, 8008 kPa, x2 = 0.9 | 76.371 ± 0.07
240.08 K, 9003 kPa, x2 = 0.9499 | 98.317 ± 0.082
240.08 K, 9004 kPa, x2 = 0.9 | 88.565 ± 0.074
240.08 K, 10004 kPa, x2 = 0.9 | 101.131 ± 0.077
240.08 K, 10007 kPa, x2 = 0.9499 | 113.159 ± 0.085
240.08 K, 11012 kPa, x2 = 0.9 | 113.893 ± 0.079
240.08 K, 12006 kPa, x2 = 0.9 | 126.282 ± 0.081
240.08 K, 13016 kPa, x2 = 0.9 | 138.41 ± 0.081
240.08 K, 14006 kPa, x2 = 0.9 | 149.671 ± 0.08
240.08 K, 15020 kPa, x2 = 0.9 | 160.417 ± 0.079
240.08 K, 16024 kPa, x2 = 0.9 | 170.25 ± 0.078
250.03 K, 1001 kPa, x2 = 0.4997 | 4.372 ± 0.033
250.03 K, 2000 kPa, x2 = 0.4997 | 8.784 ± 0.034
250.03 K, 2990 kPa, x2 = 0.4997 | 13.19 ± 0.036
250.03 K, 4000 kPa, x2 = 0.4997 | 17.721 ± 0.038
250.03 K, 5000 kPa, x2 = 0.4997 | 22.235 ± 0.041
250.03 K, 7001 kPa, x2 = 0.4997 | 31.315 ± 0.05
250.03 K, 8002 kPa, x2 = 0.4997 | 35.861 ± 0.056
250.04 K, 999 kPa, x2 = 0.9499 | 7.587 ± 0.047
250.04 K, 1999 kPa, x2 = 0.9499 | 15.652 ± 0.049
250.04 K, 3000 kPa, x2 = 0.9 | 22.884 ± 0.049
250.04 K, 3002 kPa, x2 = 0.9499 | 24.252 ± 0.052
250.04 K, 4000 kPa, x2 = 0.9 | 31.364 ± 0.052
250.04 K, 4006 kPa, x2 = 0.9499 | 33.422 ± 0.055
250.04 K, 5002 kPa, x2 = 0.9 | 40.328 ± 0.054
250.04 K, 5005 kPa, x2 = 0.9499 | 43.167 ± 0.058
250.04 K, 5999 kPa, x2 = 0.4997 | 26.765 ± 0.045
250.04 K, 6001 kPa, x2 = 0.9499 | 53.515 ± 0.062
250.04 K, 6004 kPa, x2 = 0.9 | 49.775 ± 0.057
250.04 K, 7002 kPa, x2 = 0.9 | 59.655 ± 0.06
250.04 K, 7002 kPa, x2 = 0.9499 | 64.575 ± 0.066
250.04 K, 8004 kPa, x2 = 0.9 | 70.009 ± 0.063
250.04 K, 9002 kPa, x2 = 0.4997 | 40.398 ± 0.062
250.04 K, 9006 kPa, x2 = 0.9499 | 88.515 ± 0.072
250.04 K, 9011 kPa, x2 = 0.9 | 80.795 ± 0.066
250.04 K, 10001 kPa, x2 = 0.4997 | 44.91 ± 0.069
250.04 K, 10014 kPa, x2 = 0.9 | 91.789 ± 0.068
250.04 K, 11004 kPa, x2 = 0.4997 | 49.405 ± 0.076
250.04 K, 11010 kPa, x2 = 0.9 | 102.827 ± 0.07
250.04 K, 12004 kPa, x2 = 0.4997 | 53.836 ± 0.084
250.04 K, 13005 kPa, x2 = 0.4997 | 58.27 ± 0.091
250.04 K, 14003 kPa, x2 = 0.4997 | 62.615 ± 0.098
250.04 K, 15009 kPa, x2 = 0.4997 | 66.921 ± 0.1
250.04 K, 16007 kPa, x2 = 0.4997 | 71.14 ± 0.11
250.04 K, 17008 kPa, x2 = 0.4997 | 75.293 ± 0.12
250.04 K, 18013 kPa, x2 = 0.4997 | 79.385 ± 0.12
250.04 K, 19258 kPa, x2 = 0.4997 | 84.34 ± 0.13
250.05 K, 1000 kPa, x2 = 0.9 | 7.23 ± 0.045
